The subject of data set [1] is his-tagged HA (H5) protein binding to A549 cells. Details: species or system influenza A virus H5. Particulars: for IC50: read-out: IC50 HA (H5) protein binding to A549 cells.
Data set [2] relates to VN04Low (H5N1), A/Vietnam/1203/04. Format: cell-based, influenza A virus H5N1.
For data set [3], the system named is A/Puerto Rico/8/34 (H1N1). Format: cell-based, influenza A virus H1N1. As to conditions: read-out: IC50 H1N1 plaque reduction.
Data set [4] concerns H1N1-GFP (A/Puerto Rico/8/34, NS1-GFP). It counts as cell-based, influenza A virus H1N1.
In data set [5] the test system is A/HongKong/2/68 (H3N2). Format: cell-based, influenza A virus H3N2.
Data set [6] concerns HIV/H5N1 pseudovirus HA-mediated hemolysis. Particulars: read-out: IC50 hemolysis inhibition; pH 5.
In data set [7] the test system is A/rhea/North Carolina/39482/93 (H7N1). It counts as cell-based, influenza A virus H7N1.
Data set [8] deals with MDCK cells.
Data set [9] relates to HIV/H5N1 pseudovirus. Format: cell-based, influenza A virus H5N1. As to conditions: 10 µM.
Data set [10] concerns VN04Low (H5N1). Format: cell-based, influenza A virus H5N1. Particulars: read-out: IC50 H5N1 plaque reduction.
Data set [11] has as its system H1N1-GFP (A/Puerto Rico/8/34, NS1-GFP). It counts as cell-based, influenza A virus H1N1. As to conditions: for IC50: read-out: IC50 anti-H1N1.
Data set [12] has as its system HIV/H5N1 pseudovirus. Format: cell-based, influenza A virus A/Goose/Qinghai/59/05 (H5N1). Particulars: read-out: IC50 HIV/H5N1.
For data set [13], the system named is A549 cells. Briefly: Cell viability assay. Particulars: 48 h, CellTiter-Glo. A general note: In ATP-based viability assays light output follows the ATP content of the culture.
Data set [14] relates to A/Puerto Rico/8/34 (H1N1). Particulars: oral administration; ref van Dongen et al., 2019; cited from earlier work.

With `CC(=O)N[C@H]1[C@H]([C@H](O)[C@H](O)CO)O[C@@](O[C@H]2[C@@H](O)[C@@H](CO)O[C@@H](O[C@H]3[C@H](O)[C@@H](O)C(O)O[C@@H]3CO)[C@@H]2O)(C(=O)O)C[C@@H]1O` (stereo partly shown) [2,3-sialyllactose], in data set [1], the “inhibition of HA (H5) protein binding at 9 mM” value is on record as “inhibited protein binding completely” and the IC50 stood at 1800 µM.
As to `CC(=O)N[C@H]1[C@H]([C@H](O)[C@H](O)CO)O[C@@](OC[C@H]2O[C@@H](O[C@H]3[C@H](O)[C@@H](O)C(O)O[C@@H]3CO)[C@H](O)[C@@H](O)[C@H]2O)(C(=O)O)C[C@@H]1O` (stereo partly shown) [2,6-sialyllactose], in [1], the “inhibition of HA (H5) protein binding at 27 mM” value amounted to 47% and the IC50 came out at 29500 µM.
For the compound `CC(C)N1CCC(NC(=O)c2ccc(Cl)cc2Cl)CC1` [CBS1116, 2,4-dichloro-N-(1-isopropyl-4-piperidinyl) benzamide], in data set [2], the “inhibitory activity against VN04Low strain” value is on record as “inhibitory activity against VN04Low strain in a concentration-dependent manner”. Besides, the IC50 in [3] stood at 0.4 µM. Also, the “HA protein still bound to the cells” value in data set [1] came to 100%. Further, in [4], the “cells infected by H1N1-GFP, added at 0h” value amounted to 0%; the “cells infected by H1N1-GFP, added at +1h” value was determined as 17%; the “cells infected by H1N1-GFP, added at +2h” value stood at 26%; the “cells infected by H1N1-GFP, added at +3h” value is on record as 33%. Also, the “cells infected by H1N1-GFP, added at -1h” value in data set [4] is 38%. Moreover, the “inhibition against H3N2” value in data set [5] is “no inhibition”. In [6], the IC50 was 6 µM. In addition, the “inhibition against H7N1” value in data set [7] is “no inhibition”. In addition, the “cell toxicity to MDCK cells” value in data set [8] is given as “no cell toxicity”. In addition, in data set [9], the “inhibition of HIV/H5N1 infection, added at 0h” value is on record as ~ 99%; the “inhibition of HIV/H5N1 infection, added at +1h” value amounted to 75%; the “inhibition of HIV/H5N1 infection, added at +2h” value amounted to 41%; the “inhibition of HIV/H5N1 infection, added at -1h” value is recorded as “no inhibition”. Also, the IC50 in data set [10] turned out to be 13.8 µM. In addition, in [11], the “H1N1-GFP infection at 5 μM” value is listed as “completely blocked”, the “concentration at which significant inhibition of H1N1 was observed” value was 5 µM and the IC50 amounted to 0.4 µM. Moreover, the IC50 in data set [12] worked out at 3.9 µM.
Turning to `CC(C)N1CCC(NC(=O)c2c(Cl)cccc2Cl)CC1` [CBS1117], the CC50 (as a rule, the concentration that lowers cell viability or growth by half) in data set [13] stood at 274 µM. Besides, in [11], the IC50 was determined as 0.07 µM.
Take `CC(=O)Nc1ccc2oc(-c3ccnc(C(=O)N4CCN([C@H](c5ccccc5)c5nnn(C)n5)CC4)c3)nc2c1` [JNJ4796]: in data set [14], the “protection of mice against H1N1 challenge” value is given as “protects mice”.
